# How the values were obtained:
# LDL [1] = experiment: K-37 fluorescence in LDL with and without octanoate (Example 2); format: binding
# Description: The dye K-37 was added at a concentration of 0.5 mM to LDL at a total lipid concentration of 5 mM, in the presence and absence of 50 mg/ml HSA. Measurements were made with and without the addition of 0.1 M sodium octanoate, which acted as a ligand binding inhibitor.
# [2] = target: T1, Human Serum Albumin (HSA) (Homo sapiens, UniProt P02768); experiment: K-37 fluorescence with HSA with and without octanoate, blocking of HSA (Example 2)
# [3] = target: T1, Human Serum Albumin (HSA); experiment: Nile Red fluorescence with HSA with and without octanoate (Example 3); format: binding
# LDL [4] = experiment: Nile Red fluorescence in LDL with and without octanoate (Example 3); format: binding
# HDL = experiment: Nile Red fluorescence in HDL compared with VLDL and LDL at different excitation wavelengths (Example 6); set-up: species or system human
# Description: Further optimisation of the assay according to the invention Further tests were performed on human serum samples to investigate optimum excitation wavelengths for inducing fluorescence indicative of HDL levels according to the method of the invention.
# The inventors tested a number of wavelengths and have established that, when using Nile Red, that an excitation wavelength of 600 nm and an emission wavelength of 620 nm gives optimal results (see FIG. 15). The inventors were surprised that this excitation wavelength was optimal because it is to the very long wavelength edge of the spectrum.
# For certain samples the inventors observed a noisier plot with an excitation wavelength of 460 nm and an emission wavelength of 620 nm (see FIG. 16).
# The inventors believe that Nile Red is about 5 times more fluorescent in HDL than VLDL and LDL when excited at 600 nm as opposed to excitation at 460 nm where it is only about 2 times more fluorescent. This gives a better signal to noise when subtracting from the standard curve of LDL plus VLDL.
# [5] = target: drug binding domain of HSA (Homo sapiens, UniProt P02768); experiment: Displacement of Nile Red from HSA by agents that block the drug binding domain (Example 6); settings: agent at about 5 mM, without affecting the lipoprotein fluorescence
# Source text: (§1) This lead the inventors to realise that the HDL/Nile red assay may be improved further by using an additional blocker. They tried agents that block the drug binding domain of HSA. […] The benzoic acid has the added bonus of quenching the Nile Red residual fluorescence in solution by about 20%.
# [6] = Quenching of Nile Red residual fluorescence in solution (Example 6); format: physicochemical
# Source text: as §1
# T1 sequence (P02768 25-609): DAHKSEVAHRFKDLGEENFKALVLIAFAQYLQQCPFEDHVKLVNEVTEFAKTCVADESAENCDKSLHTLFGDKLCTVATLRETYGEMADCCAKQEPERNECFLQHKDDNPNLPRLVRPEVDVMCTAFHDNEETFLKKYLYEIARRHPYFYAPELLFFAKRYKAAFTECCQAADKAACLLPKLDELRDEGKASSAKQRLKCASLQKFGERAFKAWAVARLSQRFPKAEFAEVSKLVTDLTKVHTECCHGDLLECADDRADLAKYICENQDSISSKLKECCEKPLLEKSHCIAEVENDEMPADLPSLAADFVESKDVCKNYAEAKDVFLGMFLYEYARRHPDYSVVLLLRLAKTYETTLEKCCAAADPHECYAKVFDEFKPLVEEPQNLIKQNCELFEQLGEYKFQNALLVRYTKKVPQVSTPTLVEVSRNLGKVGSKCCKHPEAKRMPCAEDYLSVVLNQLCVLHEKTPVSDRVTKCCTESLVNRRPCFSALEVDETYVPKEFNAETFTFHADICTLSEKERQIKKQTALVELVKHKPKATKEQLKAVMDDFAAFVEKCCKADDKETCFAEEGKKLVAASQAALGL
# Sequence of drug binding domain of HSA (P02768 25-609): as above
compound,measurement,setting,value
"CN(C)c1ccc(/C=C/C(=O)c2ccc(S(=O)(=O)C(F)F)cc2)cc1 [K-37, 4-dimethylamino-4′-difluoromethyl-sulphonyl-benzylidene-acetophenone]",Fluorescence Intensity,LDL [1]; 0.5 mM K-37 plus 5 mM LDL + 0.1 M sodium octanoate,209700 units
same,Fluorescence Intensity,"LDL [1]; 0.5 mM K-37 plus 5 mM LDL, no octanoate",213500 units
same,Fluorescence Intensity,[2]; 0.5 mM K-37 plus 50 mg/ml HSA + 0.1 M sodium octanoate,3600 units
same,Fluorescence Intensity,"[2]; 0.5 mM K-37 plus 50 mg/ml HSA, no octanoate",79300 units
CCN(CC)c1ccc2nc3c4ccccc4c(=O)cc-3oc2c1 [Nile Red],Fluorescence Intensity,[3]; 0.5 mM Nile Red plus 50 mg/ml HSA + 50 mM octanoate,9.118 units
same,Fluorescence Intensity,"[3]; 0.5 mM Nile Red plus 50 mg/ml HSA, no octanoate",58.905 units
same,Fluorescence Intensity,LDL [4]; 0.5 mM Nile Red plus 5 mM LDL + 50 mM octanoate,183.786 units
same,Fluorescence Intensity,"LDL [4]; 0.5 mM Nile Red plus 5 mM LDL, no octanoate",187.532 units
same,times more fluorescent in HDL than VLDL and LDL,HDL; excitation at 460 nm,about 2 times
same,times more fluorescent in HDL than VLDL and LDL,HDL; excited at 600 nm,about 5 times
O=C(O)c1ccccc1 [benzoic acid],displacement of Nile Red from HSA,[5],worked to displace the Nile Red from HSA
same,quenching of Nile Red residual fluorescence in solution,[6],about 20%
"CCCCCCCC(=O)[O-].[Na+] [octanoate, sodium octanoate]",effect of octanoate on Nile Red fluorescence in LDL,"LDL [4]; 50 mM octanoate, 5 mM LDL, 0.5 mM Nile Red",little effect
same,effect of octanoate on K-37 fluorescence in LDL,"LDL [1]; 0.1 M sodium octanoate, 5 mM LDL, 0.5 mM K-37",little effect
